Values quoted from earlier work in US20110086017A1, “Medical Food composition and methods for management of inflammatory processes in mammals” (priority 2009, published 2011).

Test system: plasma exudate at the site of inflammation
Conditions: animal study; by decreasing bradykinin and pre-kallikrein levels

Bromelain
plasma exudate at the site of inflammation: dose-dependently reduced plasma exudate
